Read-outs that look alike come from different tables or passages of the source.
How the values were obtained:
Type in all cases: cell-based
[1] = system: HA-tagged HBeAg (HBV) in DESHAe82 cells; assay: AlphaLisa eAg assay: HA-HBeAg level in DESHAe82 cell culture (anti-HBV / anti-cccDNA activity); details: Hepatitis B virus, 216 h, read-out: AlphaLisa_eAg EC50 (μM)
Procedure: Evaluation of anti-HBV activity of the compounds in in vitro cell culture studies was conducted using a modification of the assay system described in Cai et al., 2012, Antimicrobial Agents Chemotherapy 56(8):4277-88 and PCT/EP/2015/06838. In the DESHAe82 cell culture system, the HA epitope-tagged secreted HBV “e antigen” (HBeAg) and HBV precore RNA are produced only from the cccDNA circular template that is formed after HBV replication in absence of Tetracycline (Tet). The DESHAe82 cell line produces high levels of cccDNA synthesis and HA-HBeAg, and high specific readout signals with low noise. Two assay systems, a chemiluminescence ELISA (CLIA) and a proximity […] assay (AlphaLISA) were developed and used for high-sensitivity detection of HA-tagged HBeAg.
To test the compound, DESHAe82 were plated in 96 well tissue-culture treated microtiter plates in DMEM/F12 medium supplemented with 10% fetal bovine serum+1% penicillin-streptomycin with Tet, and incubated in a humidified incubator at 37° C. and 5% CO2 overnight. Next day, the cells were switched to fresh medium without Tet and treated with a test compound, over a range of concentrations (compound was solubilized in 100% DMSO before dilution in cell culture media, and the final DMSO concentration in the assay was 0.5%), and incubated for a duration of 9 days in a humidified incubator at 37° C. and 5% CO2. Untreated negative control samples (0.5% DMSO only) were included on each plate in multiple wells. On day 9, media was harvested and removed to a fresh plate, and level of HA-HBeAg was determined by CLIA or AlphaLISA. Anti-cccDNA activity of each test compound concentration was calculated as a percentage of HA-HBeAg signal detected in negative control samples versus compound-treated samples, and EC50 value for each compound was defined as the concentration that reduced the HA-HBeAg signal by 50%.

[2] = system: HBV rcDNA in HepDE19 cells; assay: HepDE19 assay with bDNA quantitation of HBV rcDNA; details: Hepatitis B virus
Text: (§1) The invention further provides a method of screening compounds for activity against HBV, as exemplified herein. In certain embodiments, the method comprises a HepDE19 assay with bDNA quantitation of HBV rcDNA. HepDE19 cell culture system is a HepG2 (human hepatocarcinoma) derived cell line that supports HBV DNA replication and cccDNA formation in a tetracycline (Tet)-regulated manner and produces HBV rcDNA and a detectable reporter molecule dependent on the production and maintenance of cccDNA (Tavis & Lomonosova, 2015, Antiviral Res. 118:132-138). In certain non-limiting embodiments, HepDE19 (50,000 cells/well) are plated in 96 well collagen-coated tissue-culture treated microtiter plates in DMEM/F12 medium supplemented with 10% fetal bovine serum, 1% penicillin-streptomycin and 1 μg/ml tetracycline and incubated in a humidified incubator at 37° C. and 5% CO2 overnight. Next day, the cells are switched to fresh medium without tetracycline and incubated for 4 hrs at 37° C. and 5% CO2. The cells are treated with fresh Tet-free medium with compounds at concentrations starting at 25 μM and a serial, ½ log, 8-point, titration series in duplicate. The final DMSO concentration in the assay is 0.5%. The plates are incubated for 7 days in a humidified incubator at 37° C. and 5% CO2. Following a 7 day-incubation, the level of rcDNA present in the inhibitor-treated wells is measured using a Quantigene 2.0 bDNA assay kit (Affymetrix, Santa Clara, Calif.) with HBV specific custom probe set and manufacturer's instructions.
In order to differentiate HBV RNaseH inhibitors from other classes of HBV inhibitors (such as, for example, nucleos(t)ide analogs or capsid inhibitors), the assay method is configured by incorporating the quantitation of both the minus-strand and the plus-strand of HBV rcDNA levels using specifically designed HBV probe sets. This is based on the observation that inhibition of RNaseH enzyme activity results in a block of the synthesis of the plus strand synthesis by the viral polymerase that follows the synthesis of the minus-strand of rcDNA (Guo, et al., 2007, J. Virol. 81:12472-12484). […] In contrast, treatment with HBV inhibitors such as a nucleos(t)ide analogs or capsid inhibitors reduces production of both strands of HBV rcDNA in cells. Concurrently, the effect of compounds on cell viability can be assessed using replicate plates, plated at a density of 5,000 cells/well and incubated for 4 days, to determine the ATP content as a measure of cell viability using the cell-titer glo reagent (CTG; Promega Corporation, Madison, Wis.) as per manufacturer's instructions. The plates are read using a Victor luminescence plate reader (PerkinElmer Model 1420 Multilabel counter), and the relative luminescence units (RLU) data generated from each well was calculated as % inhibition of the untreated control wells and analyzed using XL-Fit module in Microsoft Excel to determine EC50 and EC90 (bDNA) and CC50 (CTG) values using a 4-parameter curve fitting algorithm.
HepDE19 cell culture system is a HepG2 (human hepatocarcinoma) derived cell line that supports HBV DNA replication and cccDNA formation in a tetracycline (Tet)-regulated manner and produces HBV rcDNA and a detectable reporter molecule dependent on the production and maintenance of cccDNA (Guo, et al., 2007, J. Virol. 81:12472-12484). HepDE19 (50,000 cells/well) were plated in 96 well collagen-coated tissue-culture treated microtiter plates in DMEM/F12 medium supplemented with 10% fetal bovine serum, 1% penicillin-streptomycin and 1μg/ml tetracycline and incubated in a humidified incubator at 37° C. and 5% CO2 overnight. Next day, the cells were switched to fresh medium without tetracycline and incubated for 4 hrs at 37° C. and 5%CO2. The cells were treated with fresh Tet-free medium with compounds at concentrations starting at 25 μM and a serial, ½ log, 8-point, titration series in duplicate. The final DMSO concentration in the assay was 0.5%. […]

[3] = system: plus-strand of HBV rcDNA in HepDE19 cells; assay: HepDE19 assay with bDNA quantitation of the plus-strand of HBV rcDNA; details: Hepatitis B virus
Text: as §1
In order to differentiate HBV RNaseH inhibitors from other classes of HBV inhibitors (such as, for example, nucleos(t)ide analogs or capsid inhibitors), the assay method is configured by incorporating the quantitation of both the minus-strand and the plus-strand of HBV rcDNA levels using specifically designed HBV probe sets. […] Concurrently, the effect of compounds on cell viability can be assessed using replicate plates, plated at a density of 5,000 cells/well and incubated for 4 days, to determine the ATP content as a measure of cell viability using the cell-titer glo reagent (CTG; Promega Corporation, Madison, Wis.) as per manufacturer's instructions. The plates are read using a Victor luminescence plate reader (PerkinElmer Model 1420 Multilabel counter), and the relative luminescence units (RLU) data generated from each well was calculated as % inhibition of the untreated control wells and analyzed using XL-Fit module in Microsoft Excel to determine EC50 and EC90 (bDNA) and CC50 (CTG) values using a 4-parameter curve fitting algorithm. […]

[4] = HepDE19, 168 h, read-out: bDNA_RC DNA EC50 (μM)
[5] = 168 h, HepDE19 cells, 7 day incubation, top concentration 25 μM, read-out: bDNA_RC DNA EC50
[6] = 168 h, HepDE19 cells, 7 day incubation, plus-strand probe set, top concentration 25 μM, read-out: bDNA_RC DNA PS EC50

| SMILES | EC50 [1] | EC50 [2, 4] | EC50 ([3]; HepDE19, 168 h, read-out: bDNA_RC DNA PS EC50 (μM)) | EC50 [2, 5] | EC50 [3, 6] |
| --- | --- | --- | --- | --- | --- |
| COc1ccc2c(n1)C(C(=O)Nc1ccc(Cl)cc1)C(=O)N(O)C2=O (stereo not shown) [Compound 3, N-(4-chlorophenyl)-6-hydroxy-2-methoxy-5,7-dioxo-5,6,7,8-tetrahydro-1,6-naphthyridine-8-carboxamide] | 9.6 µM | 9.4 µM | 16 µM |  |  |
| COc1ccc2c(n1)C(C(=O)NCc1ccc(Cl)cc1)C(=O)N(O)C2=O (stereo not shown) [Compound 5, N-(4-chlorobenzyl)-6-hydroxy-2-methoxy-5,7-dioxo-5,6,7,8-tetrahydro-1,6-naphthyridine-8-carboxamide] | > 50 µM |  |  | > 25 µM | > 25 µM |
| CCOC(=O)C1C(=O)N(O)C(=O)c2ccc(OC)nc21 (stereo not shown) [Compound 1, Ethyl 6-hydroxy-2-methoxy-5,7-dioxo-5,6,7,8-tetrahydro-1,6-naphthyridine-8-carboxylate] | 2.4 µM |  |  | > 25 µM |  |
| O=C(NCc1ccc(F)cc1)C1C(=O)N(O)C(=O)c2ccc(O)nc21 (stereo not shown) [Compound 6, N-(4-fluorobenzyl)-2,6-dihydroxy-5,7-dioxo-5,6,7,8-tetrahydro-1,6-naphthyridine-8-carboxamide] | 3.6 µM |  |  | > 25 µM | 15 µM |
| CCN(CC)C(=O)C1C(=O)N(O)C(=O)c2ccc(OC)nc21 (stereo not shown) [Compound 2, N,N-diethyl-6-hydroxy-2-methoxy-5,7-dioxo-5,6,7,8-tetrahydro-1,6-naphthyridine-8-carboxamide] | 1.5 µM |  |  | > 25 µM | 11.2 µM |
| COc1ccc2c(n1)C(C(=O)Nc1ccc(F)cc1)C(=O)N(O)C2=O (stereo not shown) [Compound 4, N-(4-fluorophenyl)-6-hydroxy-2-methoxy-5,7-dioxo-5,6,7,8-tetrahydro-1,6-naphthyridine-8-carboxamide] | 9.6 µM | > 25 µM |  |  |  |

— patent publication US10358447B2, “Substituted 2-N-hydroxy-1,3-dioxo-1,2,3,4-tetrahydronaphthyridines, and methods of making and using same” (ARBUTUS BIOPHARMA CORPORATION, priority 2017, dated 2019)
